Reference: US11596632B2, “JAK1 pathway inhibitors for the treatment of gastrointestinal disease” (Incyte Corporation, priority 2018, dated 2023)

Legend:
[1] = Quantitative autoradioluminography (QARL) of colon sections; type: in vitro ADME, human; settings: ex vivo, 100 and 1000 nM apical, 1 h
Protocol: Intestinal tissue permeation studies were performed using a vertical Ussing diffusion chamber system (Harvard Apparatus, Holliston, Mass.) for healthy tissues. Frozen tissues were thawed to ambient temperature and rinsed with pre-warmed KRB buffer used for dose formulation before being gently placed on the apparatus. Permeation was carried out mucosal-to-serosal at 37° C. for 1 hour with test article in KRB buffer added to the mucosal side. The receiver side of Ussing chamber containing blank KRB buffer was stirred with air bubbles by an aerator. Due to the limited availability of the samples, UC tissues were mounted (mucosal side up) on one end of a polypropylene tube with both ends cut open, and serosal side placed on blank KRB buffer in a vial with a stirring bar. KRB containing the test article was added into the tube and thus the mucosal side of the tissue was exposed to test article during the incubation. After 1 hour incubation at 37° C., samples (100-500 μL) were taken from both donor and receiver side, and then transferred to a 1.5 mL tube for evaluating the permeation. […]
All response curves determined for image analysis calibration were generated using a weighted 1st degree, polynomial, linear equation (1/MDC/mm^2). […]
The LLOQ was determined as 3 times the mean background for each panel. […]

[2] = test system: IL-6-induced STAT3 phosphorylation; assay: Ex vivo IL-6-induced STAT3 phosphorylation in dosed patients (marker of JAK1 inhibition); set-up: species or system human; settings: 100 mg QD to 600 mg QD
Protocol: To assess the inhibitory activity of Compound 1 in serum-rich media, e.g., plasma or whole blood, the assay is conducted using whole blood; briefly, the whole blood sample is stimulated with IL-6 and levels of phosphorylated STAT3 are determined. This assay can be conducted either in vitro (human blood samples are spiked with Compound 1) or ex vivo (whole blood samples collected from human subjects dosed with Compound 1).
The systemic effects of Compound 1 have been studied in the auto-immune diseases RA and Ps. Inhibition of phosphorylation of STAT3 following stimulation with IL-6, a marker of AK1 inhibition, and TPO, a marker of JAK2 inhibition was measured in both studies. In patients with Ps doses of 100 mg QD, 200 mg QD, 200 mg BID, and 600 mg QD were studied.

## N#CCC1(n2cc(-c3ncnc4[nH]ccc34)cn2)CN(C2CCN(C(=O)c3ccnc(C(F)(F)F)c3F)CC2)C1 [Compound 1, {1-{1-[3-Fluoro-2-(trifluoromethyl)isonicotinoyl]piperidin-4-yl}-3-[4-(7H-pyrrolo[2,3-d]pyrimidin-4-yl)-1H-pyrazol-1-yl]azetidin-3-yl}acetonitrile]
[1]
  penetration into colon tissue layers: penetrated into the mucosal layer and, to a lesser extent, submucosal layer in a concentration dependent manner
[2]; RA patients, Cycle 1 Day 15
  inhibition of IL-6 induced pSTAT3: general trend of dose-dependent inhibition of IL-6 induced pSTAT3
[2]; psoriasis patients
  inhibition of pSTAT3 in response to IL-6 stimulation ex vivo: concentration dependent inhibition of pSTAT3
